Measured values from patent publication US11351218B2, “Composition for preventing or treating glioblastoma comprising Platycodon grandiflorum A. De Candolle, Scutellaria baicalensis, Phellodendron amurense Ruprecht or Rubus coreanus” (University-Industry Cooperation Group of Kyung Hee …, priority 2019, dated 2022).
Residues, ends and D or L forms follow the SMILES beside them. *: point of attachment. Cbz = O=C(OCc1ccccc1)*; CH2F = FC*

Key:
U87MG and U373MG cells [1] = experiment: WST1 cell viability assay, GBM cells; assay type: cell-based, human
Method: FIGS. 6A and 6B show the results that PD induces a decrease in cell viability and vacuole formation. […] Data shown represent the means of quintuplicate measurements which were repeated three times. The results are presented as a percentage of control (means±SD).
Cell cytotoxicity was assessed by WST1 assay. U87 and U373 cells were each seeded in a 96-well plate (5×10^3 cells/well) and treated with different concentrations of platycodin D (PD). Then, cells were incubated with a WST1 reagent (Dogen, Seoul, Korea) for 2 hours before reading the plate. Absorbance was measured at 450 nm using an ELISA reader (Versa Max, Molecular Devices, Sunnyvale, Calif., USA).

Ax1 = experiment: Western blot of Ax1 expression after natural compounds, U87MG and U373MG cells; assay type: cell-based, human; conditions: varying concentrations, 48 hours
Method: Cells were washed with PBS and dissolved using a RIPA buffer (150 mM NaCl, 1% NP-40, 0.5% DOC, 0.1% SDS, 50 mM Tris (pH 8.0), 1 mM EDTA, 1 mM PMSF, 1 mM NaF, 1 mM Na3PO4, 1 μL aprotinin, leupeptin, and pepstatin), and proteins were isolated by centrifugation at 3,000× g for 20 minutes. An equal amount (20 μg) of each of the proteins was separated by 10% sodium dodecyl sulfate-polyacrylamide gel electrophoresis (SDS-PAGE) and the proteins separated using the Trans-blot unit were transferred to a nitrocellulose (NC) membrane. The membrane to which proteins were transferred was blocked with 5% non-fat dry milk (Tris buffered saline (TBS-T) containing 0.1% Tween-20) at room temperature for 1 hour, and primary antibodies, which were diluted at a 1:1,000 concentration, were allowed to react the proteins at 4° C. for 16 hours. After washing with PBS, the resultant was allowed to react with secondary antibodies, which were diluted at a 1:5,000 concentration, at room temperature for 1 hour. A Pierce ECL Western Blotting Substrate, which also underwent a washing process, was coated onto the membrane and allowed to react in a dark room with a film, and thereby, specific protein bands were confirmed. […]

U87MG and U373MG cells [2] = experiment: LysoTracker assay with GFP-LC3B (autophagosome-lysosome fusion) in GBM cells; assay type: cell-based, human; conditions: co-treatment MβCD 100 μM and PD 10 μM, 48 hours
Source text: […] Then, cells were stained with LysoTracker (red) and DAPI (blue). The merged images show an overlap between GFP-LC3 and LysoTracker (yellow). The panels on the right are higher-magnification images of the boxed regions.
Cultured cells seeded in plates with microscope coverslips were transfected with a pGFP-LC3B plasmid using Lipofectamine 3000 (Thermo Fisher Scientific) according to the manufacturer's instructions. After the transfection, the cells were fixed with 4% paraformaldehyde (PFA) in phosphate-buffered saline (PBS) at room temperature for 10 minutes. The images were examined under a laser confocal microscope (Zeiss, Oberkochen, Baden-Wurttemberg, Germany).
To stain acidic compartments, 50 nM LysoTrackerRedDND-99 (Thermo Fisher Scientific) was added to a medium at 37° C. with 5% CO2 for 30 minutes prior to fixation. The nuclei were labeled with 4,6-diamidino-2-phenylindole (DAPI, Sigma). The slides were finally mounted using a Faramount mounting medium (Dako, Glostrup, Denmark). The images were examined under a Zeiss laser confocal microscope.
Experimental Result 11. PD Blocks Fusion of Autophagosomes with Lysosomes. Since p62 was accumulated in autophagosomes by PD treatment, it was speculated that PD may cause the lysosomal dysfunction like bafilomycin A1, which inhibits vacuolar H^+-ATPase (V-ATPase)-dependent lysosomal acidification and blocks autophagosome-lysosome fusion. Thus, the PD-treated cells with LysoTracker Red, which is a marker for acidic compartment including lysosomes was stained to examine the colocalization of GFP-LC3B.

U87MG and U373MG cells [3] = experiment: Clonogenic assay, GBM cells; assay type: cell-based, human; conditions: co-treatment MβCD 100 μM with PD 10 μM or 20 μM, 7 days
Method: FIGS. 19A and 19B show the results that MβCD restores PD-mediated decrease in cell viability. […] Data shown represent the means of quintuplicate measurements which were repeated three times. The results are presented as a percentage of control (means±SD).
Approximately 2×10^3 cells were seeded into each 6-well plate and then treated as described in FIG. 19. After 7 days, the cells were washed with PBS and stained with 0.5% crystal violet.
Furthermore, as can be confirmed in FIG. 19B, a colony formation assay was performed to confirm the effects of MβCD on PD-mediated GBM cell death.

LC3B and SQSTM1/p62 = experiment: Immunoblot of LC3B and SQSTM1/p62 in GBM cells (U87MG and U373MG); assay type: cell-based, human; conditions: combined treatment MβCD 100 μM and PD 10 μM
Method: FIGS. 2A and 2B show the results that an extract of Platycodon grandiflorum (PG) increases the levels of LC3-II and p62. […] GAPDH was used as a loading control.
FIGS. 3A to 3C show the results that PD inhibits autophagic flux in GBM cells. […] The expression of LC3B and SQSTM1 was confirmed by immunoblot analysis. […] GAPDH was used as a loading control.
The human glioma cell lines, U87MG and U373MG, were cultured respectively in RPMI-1640 (Welgene) and DMEM (Welgene, Daegu, Korea) supplemented with 10% fetal bovine serum (FBS, JR Scientific) and 1% antibiotics (Ab, Welgene). All cultures were maintained at 37° C. in a humidified incubator containing 5% CO2.
(§1) Cells treated with the concentrations and materials described in FIGS. 1-3B, 7, 8, 10, 13, 16, 18, and 20 were lysed in buffer containing 20 mM Tris-HCl (pH 7.5), 150 mM NaCl, 1 mM EDTA, 1 mM Na2EDTA, 1 mM EGTA, 1% NP-40, 1% sodium deoxycholate, 1 mM Na3VO4, 1 mM MPI, 1 mM PMSF, and PI cocktails for 15 to 20 minutes on ice. Cell lysates were separated by SDS-PAGE and transferred to nitrocellulose membranes. Immunodetection was performed with the following primary antibodies: rabbit anti-LC3B, rabbit anti-cathepsin B, rabbit-anti GAPDH (Cell Signaling Technology, Danvers, Mass.), mouse anti-SQSTM1/p62, and goat anti-cathepsin D (Santa CruzKPL, Gaithersburg, Md., USA) were incubated at room temperature for 1 hour. The protein bands were detected with ECL western Blotting Substrate (Thermo Fisher Scientific, Waltham, Mass., USA).

U87MG and U373MG cells [4] = experiment: Cholesterol cell-based detection assay (filipin III staining) in GBM cells; set-up: species or system human
Method: (§2) FIGS. 15A and 15B show the results that PD promotes accumulation of cholesterol in lysosomes. Cells were treated with DMSO, PD (10 μM), or U18666a (1 μM) for 24 hours. […] Total cholesterol levels are expressed in cholesterol (μg) per protein (mg) of cell lysate and are shown as means±SD from two independent experiments.
Cells grown on coverslips were treated with the materials. Then, the cells were fixed with 4% PFA at room temperature for 10 minutes. The solution of Filipin III (Cayman) was added for staining of […] cholesterol and the samples were incubated in a dark room for 30 minutes. The images were examined under a Zeiss laser confocal microscope.
The present inventors concluded that PD inhibits the maturation of autophagosome into autolysosomes by inhibiting lysosomal degradation and an autophagosome-lysosome fusion in GBM cells. […] To examine whether the defect in the autophagosome-lysosome fusion by PD is due to altered intracellular cholesterol levels, the PD-treated GBM cells were stained with filipin-III, which is a fluorescent dye that binds to cholesterol. […] As can be confirmed in FIG. 14A, this filipin-III staining pattern is very similar to that found in GBM cells treated with U18666A, implying that PD blocks cholesterol release from lysosome and accumulates cholesterol in lysosomes.

cathepsin B and D = experiment: Immunoblot of cathepsin B and D processing in GBM cells; assay type: cell-based, human; conditions: addition of MβCD 100 μM to PD 10 μM-treated cells
Method: Immunoblot analyses for the processing of endogenous CTSB and CTSD are shown (upper, immature form/lower, mature form of CTSB and CTSD). GAPDH was used as a loading control.
as §1
To confirm whether PD functions as an autophagy inhibitor, the effects of PD on lysosomal proteases, cathepsin B and D, were examined Autophagy is a lysosome-mediated and self-degradative process that requires lysosomal cysteine proteases known as cathepsins. Since pro-cathepsins are cleaved into a mature form in lysosomes, the 33 kD active cleaved form of cathepsins has been commonly used as a marker for lysosomal activity. As can be confirmed in FIG. 13, while the mature forms of cathepsin B and D proteins were decreased, immature forms of those protein were increased after PD treatment in U87MG and U373MG cells, implying that PD suppresses a lysosomal function by downregulating the lysosomal proteolytic activity.

cell-surface LDLR [5] = experiment: Cell surface LDLR analysis by flow cytometry, GBM cells; assay type: cell-based, human; conditions: PD 10 μM or U18666a 1 μM, 24 hours
Method: (§3) FIGS. 16A to 16D show the results that PD increases the expression of LDLR on cell surfaces in GBM cells. […] GAPDH was used as a loading control. […] GAPDH was used as a loading control.
(§4) Cells treated as described in FIG. 16 were separated from plates and resuspended in PBS. After washing with 1% BSA in PBS, the cells were incubated with a primary antibody against human LDLR (Abcam) for 30 minutes. Then, the cells were washed before incubation with an Alexa-Fluor 488-conjugated secondary antibody (Invitrogen) for 30 minutes. The stained cells were washed and resuspended. Fluorescence was analyzed by a FACScalibur flow cytometer (Becton Dickinson, San Jose, Calif., USA) using CellQuest™ software.
(§5) Brain is the most cholesterol-rich organ of the body, containing about 20% of total body cholesterol. […] As can be confirmed in FIG. 16A, in consistent with these reports, the LDLR protein level was markedly elevated in U87MG and U373MG cells relative to normal human astrocytes. […] Then, the cell surface expression of LDLR was confirmed by flow cytometry.

U87MG and U373MG cells [6] = experiment: Cholesterol measurement (total cholesterol assay kit) in GBM cells; assay type: cell-based, human; conditions: PD 10 μM or U18666a 1 μM, 24 hours
Method: as §2
Cells treated as described above were processed using a total cholesterol assay kit (STA384, Cell Biolabs) according to the manufacterer's instructions. Cholesterol esters and free cholesterol were quantified by homogenizing 10^6 cells extracted from a 200 μL mixture of chloroform: isopropanol: NP-40 (7:11:0.1). After centrifugation of the extract at 15,000× g for 10 minutes, the organic phase was collected and evaporated at 50° C. The extract was resuspended in 200 μL of a 1× cholesterol assay diluent prior to analysis. The colorimetric signal was analyzed using an ELISA reader (Versa Max, Molecular Devices, Sunnyvale, Calif., USA) at 540 nm. Cellular cholesterol results were reported as μg of cholesterol per mg of cell protein.

cell-surface LDLR [7] = experiment: Cell surface LDLR analysis by flow cytometry, normal astrocytes; assay type: cell-based, human; conditions: PD 10 μM or U18666a 1 μM, 24 hours
Method: as §3, §4, §5

U87MG and U373MG cells [8] = experiment: BODIPY FL LDL uptake assay, GBM cells; assay type: cell-based, human; conditions: U18 1 μM 24 hours, BODIPY FL LDL 1 hour
Method: (§6) Cells were treated with DMSO, PD (10 μM), or U18 (1 μM) for 24 hours and subsequently loaded with BODIPY™ FL LDL. BODIPY-LDL uptake was visualized by confocal microscopy. Nuclei were stained with DAPI (blue). Quantification shown on the right graph represents a relative fold change from three independent experiments±SD.
(§7) Cells seeded on coverslips were treated with the materials and then the culture medium was replaced with BODIPY™ FL LDL (Thermo Fisher Scientific) at a working concentration of 5 μg/mL in a medium. The cells were additionally incubated at 37° C. for 1 hour. The degree of LDL uptake was measured using a Zeiss laser confocal microscope.
(§8) Based on the previous study results of the present inventors that PD increases cell surface LDLR expression and accumulate cholesterol within lysosomes, whether PD can increase the uptake of exogenous LDL was examined Cells pretreated with PD or U18666A were incubated with BODIPY FL-labeled LDL particles for 1 hour and the LDL uptake was observed by a confocal microscope. Upon analysis of these cells, it was observed that PD caused about a 6-fold increase in LDL uptake and it was a level similar to that detected in the U18666A-treated cells.

LDLR = experiment: Immunoblot of LDLR in U87MG, U373MG cells and normal astrocytes; assay type: cell-based, human; conditions: PD 5 μM and 10 μM or U18666a 1 μM, 24 hours; U87MG, U373MG and normal astrocytes
Method: as §3, §1, §5

normal astrocytes = experiment: BODIPY FL LDL uptake assay, normal astrocytes; assay type: cell-based, human; conditions: PD 10 μM or U18 1 μM, 24 hours
Method: as §6, §7, §8

COC(=O)C[C@H](NC(=O)[C@H](C)NC(=O)[C@@H](NC(=O)OCc1ccccc1)C(C)C)C(=O)CF [z-VAD-fmk, reference compound] (Cbz-Val-Ala-Asp(OMe)-CH2F)
cell viability, co-treatment vs PD-alone (U87MG and U373MG cells [1]; z-VAD-fmk 50 μM with PD 10 μM and 20 μM, 48 hours): little impact

O=C(O)[C@H]1O[C@@H](Oc2cc3oc(-c4ccccc4)cc(=O)c3c(O)c2O)[C@H](O)[C@@H](O)[C@@H]1O [baicalin]
expression of Ax1 (Ax1): reduced the expression of Ax1

O=c1c(O)c(-c2ccc(O)c(O)c2)oc2cc(O)cc(O)c12 [quercetin]
expression of Ax1 (Ax1): reduced the expression of Ax1

methyl β-cyclodextrin [MβCD, reference compound]
colocalization of GFP-LC3B puncta with LysoTracker Red fluorescence (U87MG and U373MG cells [2]): remarkable increase
colony-forming ability (U87MG and U373MG cells [3]): almost completely recovered
changes in LC3-II and p62 levels increased by PD alone (LC3B and SQSTM1/p62): almost completely restored
accumulated cholesterol in lysosomes (U87MG and U373MG cells [4]; PD 10 μM 24 hours, then MβCD 100 μM 48 hours): successfully depleted
viability of GBM cells (U87MG and U373MG cells [1]; combined treatment MβCD 100 μM and PD 10 μM, 72 hours): significantly restored the viability
activity of cathepsin B (cathepsin B and D): recovered activity

CCN(CC)CCO[C@H]1CC[C@@]2(C)C(=CC[C@@H]3[C@@H]2CC[C@]2(C)C(=O)CC[C@@H]32)C1 [U18666A, reference compound]
cell surface expression of LDLR (cell-surface LDLR [5]): shift of the FL-1 histogram peak toward right
free cholesterol levels (U87MG and U373MG cells [6]): significant increase
changes in peak shift (cell surface LDLR) (cell-surface LDLR [7]): very negligible
LDL uptake level compared with PD (U87MG and U373MG cells [8]): similar
cellular cholesterol distribution (filipin-III staining) (U87MG and U373MG cells [4]; PD 10 μM or U18666a 1 μM, 24 hours): very similar
LDLR expression (LDLR): increased the LDLR expression
LDL uptake (normal astrocytes): less effective
